Calls of active or inactive are those of the source. No cut-off for these calls is given here.

Data set [1] has as its system Mus musculus. The data set is described as follows: Toxicity in DSS-induced acute C57Bl/6J mouse ulcerative colitis model assessed as change in body weight at 200 mg/kg, po qd (reference value: -15.3%). It counts as organism-based. Particulars: in vivo.
The subject of data set [2] is Mus musculus. The data set is described as follows: Anti-ulcerative colitis activity in DSS-induced acute C57Bl/6J mouse ulcerative colitis model assessed as inhibition rate of disease activity index at 200 mg/kg, po qd measured on day 8 relative to control. It counts as functional. Particulars: 192 h.
In data set [3] the test system is Mus musculus. The experiment in a line: Anti-ulcerative colitis activity in po dosed DSS-induced acute C57Bl/6J mouse ulcerative colitis model assessed as decrease in colon macroscopic damage index administered as qd measured on day 8. It counts as functional, organism-based.
For data set [4], the system named is Mus musculus. The experiment in a line: Anti-ulcerative colitis activity in DSS-induced acute C57Bl/6J mouse ulcerative colitis model assessed as improvement in lesions of inflammatory bowel disease at 200 mg/kg, po qd measured on day 8. It counts as functional, organism-based.
Data set [5] deals with Mus musculus. The experiment in a line: Anti-ulcerative colitis activity in DSS-induced acute C57Bl/6J mouse ulcerative colitis model assessed as decrease in inflammatory lesions in colon tissue at 50 to 100 mg/kg, po qd measured on day 8. It counts as functional, organism-based.
In data set [6] the test system is Mus musculus. The experiment in a line: Anti-ulcerative colitis activity in DSS-induced acute C57Bl/6J mouse ulcerative colitis model assessed as improvement in colon contracture at 100 mg/kg, po qd measured on day 8 (reference value: 41.8%). It counts as functional.
The species entered for data set [7] is Mus musculus. The experiment in a line: Potency index, ratio of compound activity to SASP activity for inhibition rate of disease activity index in DSS-induced acute C57Bl/6J mouse ulcerative colitis model. It counts as functional.
In data set [8] the test system is Mus musculus. The experiment in a line: Anti-ulcerative colitis activity in DSS-induced acute C57Bl/6J mouse ulcerative colitis model assessed as inhibition rate of disease activity index at 100 mg/kg, po qd measured on day 8 relative to control. It counts as functional. Particulars: 192 h.
In data set [9] the target is T1, X-box-binding protein 1 (Homo sapiens) (UniProt P17861).
T1 sequence (whole entry): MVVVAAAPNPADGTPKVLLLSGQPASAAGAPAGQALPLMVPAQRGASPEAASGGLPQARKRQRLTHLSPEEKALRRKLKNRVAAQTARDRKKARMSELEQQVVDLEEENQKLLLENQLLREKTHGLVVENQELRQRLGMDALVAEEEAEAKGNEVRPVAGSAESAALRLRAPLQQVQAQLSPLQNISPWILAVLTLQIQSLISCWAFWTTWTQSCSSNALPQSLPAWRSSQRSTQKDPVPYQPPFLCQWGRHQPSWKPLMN
The data set is described as follows: Transactivation of XBP1 (unknown origin) transfected in rat IEC-6 cells at 10 uM after 48 hrs by dual luciferase reporter gene assay. It counts as cell-based. A general note: Reporter assays use an easily measured gene product as a stand-in for the process of interest.

In data set [10] the test system is Mus musculus. The experiment in a line: Anti-ulcerative colitis activity in DSS-induced acute C57Bl/6J mouse ulcerative colitis model assessed as colon macroscopic damage index at 50 mg/kg, po qd measured on day 8 (reference value: 5.69 +/- 1.12). It counts as functional.
The test system of data set [11] is Mus musculus. The data set is described as follows: Anti-ulcerative colitis activity in DSS-induced acute C57Bl/6J mouse ulcerative colitis model assessed as improvement in colon contracture at 50 mg/kg, po qd measured on day 8 (reference value: 41.8%). It counts as functional.
The subject of data set [12] is Mus musculus. The experiment in a line: Anti-ulcerative colitis activity in DSS-induced acute C57Bl/6J mouse ulcerative colitis model assessed as appearance of regularly arranged IEC cells at 200 mg/kg, po qd measured on day 8. It counts as functional, organism-based.
The subject of data set [13] is Mus musculus. The data set is described as follows: Anti-ulcerative colitis activity in DSS-induced acute C57Bl/6J mouse ulcerative colitis model assessed as improvement in colon contracture at 200 mg/kg, po qd measured on day 8 (reference value: 41.8%). It counts as functional.
The subject of data set [14] is Mus musculus. The experiment in a line: Toxicity in DSS-induced acute C57Bl/6J mouse ulcerative colitis model assessed as change in body weight at 50 mg/kg, po qd (reference value: -15.3%). It counts as organism-based. Particulars: in vivo.
The subject of data set [15] is Mus musculus. The experiment in a line: Anti-ulcerative colitis activity in DSS-induced acute C57Bl/6J mouse ulcerative colitis model assessed as restoration of polarity arrangement of IEC cells to its normal physiological state at 200 mg/kg, po qd measured on day 8. It counts as functional, organism-based.
The test system of data set [16] is Mus musculus. The experiment in a line: Anti-ulcerative colitis activity in DSS-induced acute C57Bl/6J mouse ulcerative colitis model assessed as colon macroscopic damage index at 200 mg/kg, po qd measured on day 8 (reference value: 5.69 +/- 1.12). It counts as functional.
Data set [17] concerns Mus musculus. The data set is described as follows: Anti-ulcerative colitis activity in DSS-induced acute C57Bl/6J mouse ulcerative colitis model assessed as colon macroscopic damage index at 100 mg/kg, po qd measured on day 8 (reference value: 5.69 +/- 1.12). It counts as functional.
Data set [18] addresses T1, X-box-binding protein 1 (Homo sapiens). The experiment in a line: Transactivation of XBP1 (unknown origin) transfected in rat IEC-6 cells at 10 uM after 48 hrs by dual luciferase reporter gene assay relative to con 2. It counts as cell-based.
The test system of data set [19] is Mus musculus. The experiment in a line: Anti-ulcerative colitis activity in DSS-induced acute C57Bl/6J mouse ulcerative colitis model assessed as inhibition rate of disease activity index at 50 mg/kg, po qd measured on day 8 relative to control. It counts as functional. Conditions: 192 h.
Data set [20] has as its system Mus musculus. The data set is described as follows: Toxicity in DSS-induced acute C57Bl/6J mouse ulcerative colitis model assessed as change in body weight at 100 mg/kg, po qd (reference value: -15.3%). It counts as organism-based. Conditions: in vivo.
Data set [21] deals with Mus musculus. The experiment in a line: Anti-ulcerative colitis activity in po dosed DSS-induced acute C57Bl/6J mouse ulcerative colitis model assessed as inhibition rate of disease activity index administered as qd measured on day 8. It counts as functional, organism-based.

Usually inhibition in vivo stands for how much of the control response was suppressed. Take `C1=C2c3cc4c(cc3CCN2Cc2c1ccc1c2OCO1)OCO4`: the Activity with Mus musculus [1] is 6.8%; in the data set with Mus musculus [3] it was “Dose-dependent effect”; with Mus musculus [6], 20.8%; in the data set on Mus musculus [11] it was 24.6%; with Mus musculus [13] it was 18.7%; with Mus musculus [14], -7%. Besides, the Activity in the data set with Mus musculus [20] worked out at 0.4%. For the same molecule, the inhibition in vivo at 200 mg/kg in the data set on Mus musculus [2] stood at 74%. Also, the result (in the data set on Mus musculus [4]; in data set [9]; in the data set with Mus musculus [12]; with Mus musculus [15]) was Active. Besides, in the data set with Mus musculus [5], the result was inactive. The Ratio entry in the data set filed under Mus musculus [7] is “<=2”. Moreover, the inhibition in vivo at 100 mg/kg in the data set with Mus musculus [8] is 55.9%. Further, the values for the Activity_index with Mus musculus [10], in the data set on Mus musculus [16] and with Mus musculus [17] were 3.52, 2.16 and 2.86, respectively. This molecule also gave a fold change (FC) in data set [18] of 2.96. Also, in the data set with Mus musculus [19], the inhibition in vivo at 50 mg/kg worked out at 48%. The inhibition entry in the data set on Mus musculus [21] is “Dose-dependent effect”.

The values are drawn from ChEMBL document CHEMBL3611992, “Synthesis and Structure-Activity Relationships of Quaternary Coptisine Derivatives as Potential Anti-ulcerative Colitis Agents” (J Med Chem, 2015).
